Reference: patent US8048862B2, “Macrocyclic inhibitors of hepatitis C virus replication” (priority 2008, dated 2011)
Where two headings read alike, the source gives them in different places.

Legend:
NS3/NS4 complexes = NS3/NS4 complexes (Hepatitis C virus genotype 1a, UniProt P27958); assay: NS3/NS4 inhibition activity (IC50); type: biochemical
Method in brief: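 NS3/NS4 complexes were formed and compound inhibitory concentrations determined at ambient temperature (23 °C). The buffer contained 50 mM Tris-HCl pH 7.5, 15% glycerol, 0.6 mM LDAO, 25 μM NS4A peptide and 10 mM DTT.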

hepatitis C replicon = hepatitis C replicon EC50; type: cell-based; settings: Hepatitis C virus
Description: NS3-NS4 inhibition activity can be determined using known assay methods.

[1] = Table 3, hepatitis C replicon, read-out: EC50

Chain of NS3/NS4 complexes (P27958 1027-1657): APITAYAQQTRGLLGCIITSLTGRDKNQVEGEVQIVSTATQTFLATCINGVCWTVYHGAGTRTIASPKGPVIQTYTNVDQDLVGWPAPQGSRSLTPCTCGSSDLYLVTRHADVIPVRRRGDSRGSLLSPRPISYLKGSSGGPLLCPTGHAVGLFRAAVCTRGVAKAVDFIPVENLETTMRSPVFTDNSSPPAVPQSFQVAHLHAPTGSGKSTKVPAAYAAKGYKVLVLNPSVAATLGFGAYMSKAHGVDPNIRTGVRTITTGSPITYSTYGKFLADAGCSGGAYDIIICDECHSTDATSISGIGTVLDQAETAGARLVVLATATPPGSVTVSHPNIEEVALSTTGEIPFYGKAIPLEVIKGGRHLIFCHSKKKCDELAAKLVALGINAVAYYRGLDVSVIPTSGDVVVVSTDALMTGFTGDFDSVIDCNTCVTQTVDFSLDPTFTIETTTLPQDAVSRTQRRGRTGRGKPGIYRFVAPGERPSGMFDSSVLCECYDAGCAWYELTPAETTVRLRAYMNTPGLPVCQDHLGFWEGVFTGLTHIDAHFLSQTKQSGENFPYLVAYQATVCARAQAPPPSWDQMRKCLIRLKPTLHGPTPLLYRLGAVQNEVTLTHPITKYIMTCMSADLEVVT
Chain of NS3/NS4 complexes (P27958 1658-1711): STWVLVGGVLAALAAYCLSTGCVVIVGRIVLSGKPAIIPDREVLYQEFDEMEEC

Row | SMILES | IC50 (NS3/NS4 complexes; Table 3, read-out: IC50) [nM] | EC50 (hepatitis C replicon; [1]) [nM] | IC50 (NS3/NS4 complexes; IC50, Table 3) [nM] | EC50 (hepatitis C replicon) [nM]
1 | CC(C)(C)OC(=O)N[C@H]1CCCCC/C=C\[C@@H]2C[C@@]2(C(=O)NOc2ccccc2)NC(=O)[C@@H]2C[C@@H](Oc3nc4ccccc4o3)CN2C1=O [Compound 1027] | > 100 | > 100 |  | 
2 | CC(C)(C)OC(=O)N[C@H]1CCCCC/C=C\[C@@H]2C[C@@]2(C(=O)NS(=O)(=O)C2(C)CC2)NC(=O)[C@@H]2C[C@@H](Oc3nc4ccccc4o3)CN2C1=O [Compound 1028] | < 10 | 10 to 100 |  | 
3 | CC(C)(C)OC(=O)N[C@H]1CCCCC/C=C\[C@@H]2C[C@@]2(C(=O)NS(=O)(=O)C2CC2)NC(=O)[C@@H]2C[C@@H](Oc3nc4ccccc4o3)CN2C1=O [Compound 1029] | < 10 | 10 to 100 |  | 
4 | Cc1ccc2oc(O[C@@H]3C[C@H]4C(=O)N[C@]5(C(=O)NS(=O)(=O)C6CC6)C[C@H]5/C=C\CCCCC[C@H](NC(=O)OC(C)(C)C)C(=O)N4C3)nc2c1 [Compound 1030] | < 10 | 10 to 100 |  | 
5 | Cc1cccc2oc(O[C@@H]3C[C@H]4C(=O)N[C@]5(C(=O)NS(=O)(=O)C6CC6)C[C@H]5/C=C\CCCCC[C@H](NC(=O)OC(C)(C)C)C(=O)N4C3)nc12 [Compound 1031] | < 10 | 10 to 100 |  | 
6 | CC(C)(C)OC(=O)N[C@H]1CCCCC/C=C\[C@@H]2C[C@@]2(C(=O)NS(=O)(=O)C2CC2)NC(=O)[C@@H]2C[C@@H](Oc3nc4cc(Cl)ccc4o3)CN2C1=O [Compound 1032] | < 10 | > 100 |  | 
7 | Cc1ccc2nc(O[C@@H]3C[C@H]4C(=O)N[C@]5(C(=O)NS(=O)(=O)C6CC6)C[C@H]5/C=C\CCCCC[C@H](NC(=O)OC(C)(C)C)C(=O)N4C3)oc2c1 [Compound 1033] | < 10 | 10 to 100 |  | 
8 | CC(C)(C)OC(=O)N[C@H]1CCCCC/C=C\[C@@H]2C[C@@]2(C(=O)NS(=O)(=O)C2CC2)NC(=O)[C@@H]2C[C@@H](Oc3nc4cc(F)ccc4o3)CN2C1=O [Compound 1034] | < 10 | 10 to 100 |  | 
9 | COc1ccc2oc(O[C@@H]3C[C@H]4C(=O)N[C@]5(C(=O)NS(=O)(=O)C6CC6)C[C@H]5/C=C\CCCCC[C@H](NC(=O)OC(C)(C)C)C(=O)N4C3)nc2c1 [Compound 1035] | < 10 | > 100 |  | 
10 | CC(C)(C)OC(=O)N[C@H]1CCCCC/C=C\[C@@H]2C[C@@]2(C(=O)NS(=O)(=O)C2CC2)NC(=O)[C@@H]2C[C@@H](Oc3nc4ccc(Cl)cc4o3)CN2C1=O [Compound 1036] | < 10 | > 100 |  | 
11 | CC(C)(C)OC(=O)N[C@H]1CCCCC/C=C\[C@@H]2C[C@@]2(C(=O)NS(=O)(=O)C2CC2)NC(=O)[C@@H]2C[C@@H](Oc3nc4ccc(F)cc4o3)CN2C1=O [Compound 1037] | < 10 | > 100 |  | 
12 | CC(C)(C)OC(=O)N[C@H]1CCCCC/C=C\[C@@H]2C[C@@]2(C(=O)NS(=O)(=O)C2CC2)NC(=O)[C@@H]2C[C@@H](Oc3nc4cccc(F)c4o3)CN2C1=O [Compound 1038] | < 10 | 10 to 100 |  | 
13 | Cc1cccc2nc(O[C@@H]3C[C@H]4C(=O)N[C@]5(C(=O)NS(=O)(=O)C6CC6)C[C@H]5/C=C\CCCCC[C@H](NC(=O)OC(C)(C)C)C(=O)N4C3)sc12 [Compound 1040] | < 10 | < 10 |  | 
14 | CC(C)(C)OC(=O)N[C@H]1CCCCC/C=C\[C@@H]2C[C@@]2(C(=O)NS(=O)(=O)C2(C)CC2)NC(=O)[C@@H]2C[C@@H](Oc3nc4cc(Cl)ccc4o3)CN2C1=O [Compound 1046] | < 10 | > 100 |  | 
15 | CCn1c(O[C@@H]2C[C@H]3C(=O)N[C@]4(C(=O)NS(=O)(=O)C5(C)CC5)C[C@H]4/C=C\CCCCC[C@H](NC(=O)OC(C)(C)C)C(=O)N3C2)nc2ccccc21 [Compound 1048] | < 10 | < 10 |  | 
16 | CC(C)(C)OC(=O)N[C@H]1CCCCC/C=C\[C@@H]2C[C@@]2(C(=O)NS(=O)(=O)C2(C)CC2)NC(=O)[C@@H]2C[C@@H](Oc3nc4ccccc4n3Cc3ccccc3)CN2C1=O [Compound 1050] | < 10 | 10 to 100 |  | 
17 | CC(C)(C)OC(=O)N[C@H]1CCCCC/C=C\[C@@H]2C[C@@]2(C(=O)NS(=O)(=O)C2CC2)NC(=O)[C@@H]2C[C@@H](Oc3nc4ccccc4n3Cc3ccccc3)CN2C1=O [Compound 1051] | < 10 | 10 to 100 |  | 
18 | CC(C)(C)OC(=O)N[C@H]1CCCCC/C=C\[C@@H]2C[C@@]2(C(=O)NCCC(=O)NCc2ccccc2)NC(=O)[C@@H]2C[C@@H](OC(=O)N3Cc4cccc(F)c4C3)CN2C1=O [Compound 1052] | > 100 | > 100 |  | 

Row | SMILES | IC50 (NS3/NS4 complexes; Table 3, read-out: IC50) [nM] | EC50 (hepatitis C replicon; [1]) [nM] | IC50 (NS3/NS4 complexes; IC50, Table 3) [nM] | EC50 (hepatitis C replicon) [nM]
19 | CC(C)(C)OC(=O)N[C@H]1CCCCC/C=C\[C@@H]2C[C@@]2(C(=O)NCC(=O)NCc2ccccc2)NC(=O)[C@@H]2C[C@@H](OC(=O)N3Cc4cccc(F)c4C3)CN2C1=O [Compound 1053] |  |  | 10 to 100 | > 100
20 | CC(C)(C)OC(=O)N[C@H]1CCCCC/C=C\[C@@H]2C[C@@]2(C(=O)N2CCC[C@@H]2C(=O)NCc2ccccc2)NC(=O)[C@@H]2C[C@@H](OC(=O)N3Cc4cccc(F)c4C3)CN2C1=O [Compound 1057] |  |  | > 100 | > 100
21 | CC(C)(C)OC(=O)N[C@H]1CCCCC/C=C\[C@@H]2C[C@@]2(C(=O)NCCC(=O)NCc2ccccc2)NC(=O)[C@@H]2C[C@@H](O)CN2C1=O [Compound 1058] | > 100 | > 100 |  | 
22 | CC(=O)O[C@@H]1C[C@H]2C(=O)N[C@]3(C(=O)N4CCC[C@H]4C(=O)NCc4ccccc4)C[C@H]3/C=C\CCCCC[C@H](NC(=O)OC(C)(C)C)C(=O)N2C1 [Compound 1061] |  | > 100 | > 100 | 
23 | CO[C@@H]1C[C@H]2C(=O)N[C@]3(C(=O)NCCC(=O)NCc4ccccc4)C[C@H]3/C=C\CCCCC[C@H](NC(=O)OC(C)(C)C)C(=O)N2C1 [Compound 1062] | > 100 | > 100 |  | 
24 | CN(C)C(=O)O[C@@H]1C[C@H]2C(=O)N[C@]3(C(=O)NS(=O)(=O)C4(C)CC4)C[C@H]3/C=C\CCCCC[C@H](NC(=O)OC(C)(C)C)C(=O)N2C1 [Compound 1065] | < 10 |  |  | > 100
25 | CC(=O)O[C@@H]1C[C@H]2C(=O)N[C@]3(C(=O)NS(=O)(=O)C4CC4)C[C@H]3/C=C\CCCCC[C@H](NC(=O)OC(C)(C)C)C(=O)N2C1 [Compound 1071] | < 10 | > 100 |  | 
26 | CC(C)(C)OC(=O)N[C@H]1CCCCC/C=C\[C@@H]2C[C@@]2(C(=O)NS(=O)(=O)C2(C)CC2)NC(=O)[C@@H]2C[C@@H](OC(=O)N3CCCC3)CN2C1=O [Compound 1072] | < 10 | > 100 |  | 
27 | COc1ccc2c(O[C@@H]3C[C@H]4C(=O)N[C@]5(C(=O)NS(=O)(=O)C6CC6)C[C@H]5/C=C\CCCCC[C@H](NC(=O)OC(C)(C)C)C(=O)N4C3)cc(-c3ccccc3)nc2c1 [Compound 1075] | < 10 | < 10 |  | 
28 | CC(C)n1c(O[C@@H]2C[C@H]3C(=O)N[C@]4(C(=O)NS(=O)(=O)C5(C)CC5)C[C@H]4/C=C\CCCCC[C@H](NC(=O)OC(C)(C)C)C(=O)N3C2)nc2ccccc21 [Compound 1077] | < 10 | < 10 |  | 
29 | COc1ccc2c(O[C@@H]3C[C@H]4C(=O)N[C@]5(C(=O)NS(=O)(=O)C6(C)CC6)C[C@H]5/C=C\CCCCC[C@H](NC(=O)OC(C)(C)C)C(=O)N4C3)cc(-c3nc(C(C)C)cs3)nc2c1C [Compound 1078] | < 10 | < 10 |  | 
30 | CC(C)(C)OC(=O)N[C@H]1CCCCC/C=C\[C@@H]2C[C@@]2(C(=O)NS(=O)(=O)C2(C)CC2)NC(=O)[C@@H]2C[C@@H](Oc3nc4ccccc4[nH]3)CN2C1=O [Compound 1079] | < 10 |  |  | > 100
31 | CCn1c(O[C@@H]2C[C@H]3C(=O)N[C@]4(C(=O)NS(=O)(=O)C5(C)CC5)C[C@H]4CCCCCCC[C@H](NC(=O)OC(C)(C)C)C(=O)N3C2)nc2ccccc21 [Compound 1080] | < 10 | < 10 |  | 
32 | CC(C)(C)OC(=O)N[C@H]1CCCCCCC[C@@H]2C[C@@]2(C(=O)NS(=O)(=O)C2(C)CC2)NC(=O)[C@@H]2C[C@@H](OC(=O)N3Cc4cccc(F)c4C3)CN2C1=O [Compound 1081] | < 10 | < 10 |  | 
33 | CC(C)(C)OC(=O)N[C@H]1CCCCC/C=C\[C@@H]2C[C@@]2(C(=O)NS(=O)(=O)CC(=O)Nc2ccccc2)NC(=O)[C@@H]2C[C@@H](OC(=O)N3Cc4cccc(F)c4C3)CN2C1=O [Compound 1082] | < 10 |  |  | > 100
34 | CC(C)(C)OC(=O)N[C@H]1CCCCC/C=C\[C@@H]2C[C@@]2(C(=O)NS(=O)(=O)c2ccccc2OCC(N)=O)NC(=O)[C@@H]2C[C@@H](OC(=O)N3Cc4cccc(F)c4C3)CN2C1=O [Compound 1083] | < 10 | > 100 |  | 
35 | CNC(=O)COc1ccccc1S(=O)(=O)NC(=O)[C@@]12C[C@H]1/C=C\CCCCC[C@H](NC(=O)OC(C)(C)C)C(=O)N1C[C@H](OC(=O)N3Cc4cccc(F)c4C3)C[C@H]1C(=O)N2 [Compound 1084] | < 10 | > 100 |  | 
36 | O=C(N[C@H]1CCCCC/C=C\[C@@H]2C[C@@]2(C(=O)NS(=O)(=O)C2CC2)NC(=O)[C@@H]2C[C@@H](OC(=O)N3Cc4cccc(F)c4C3)CN2C1=O)O[C@@H]1C[C@@H]2C[C@@H]2C1 [Compound 1085] | < 10 | < 10 |  | 
